These results are taken from US10463646B2, “Micellar polymer-flavonoid conjugate nanocomplex” (Agency for Science, Technology and Research, priority 2014, dated 2019).

For data set [1] the following is noted: rat; cited from earlier work.
For data set [2] the following is noted: 0.05 M phosphate-buffered saline (PBS) (pH 7.4) at 37° C.; cited from earlier work.
A short description of data set [3]: Body weight / toxicity in the A498-luc xenograft study. Type of data set: in vivo, mouse. As to the method: (§1) To study the toxicity and therapeutic effect, in vivo studies were conducted on the micellar nanocomplexes. A subcutaneous renal cell carcinoma model was established. Adult female Balb/c athymic, immunoincompetent nude mice (average weight=19 g, age=6-8 weeks) were used.
To study the therapeutic effect of SU/PEG-EGCG micellar nanocomplexes by intravenous injection, a xenograft tumor model was established by inoculating 6×10^6 A498-luc cells subcutaneously into the root of the left thigh of the mouse. On day 6 after tumor inoculation, the animals were divided into four groups for tail vein injection of various solutions (n=8 per group) twice weekly for 5 weeks, while one group received daily SU gavaging at 60 mg/kg. For the tail vein injection, a volume of 200 μl of sample solution was used.
To monitor bioluminescent signals from A498-luc cells, isoflurane gas-anesthetized animals were injected intraperitoneally with 200 μl of D-luciferin (5 mg ml^−1, Promega) in PBS, and placed on a warmed stage (30° C.) inside the camera box of the IVIS imaging system (Xenogen, Alameda, Calif., USA) with a CCD camera. […] Images and measurements of luminescent signals were acquired and analyzed with the Xenogen imaging software v3.2 and quantified as photons/s. Tumor size and body weight were measured on a weekly basis. […]

Data set [4] in a line: Body weight in the ACHN xenograft oral study. The format is in vivo, mouse. To be noted: oral gavage daily. The procedure: as §1
To investigate the therapeutic effect of SU/PEG-mEGCG MNC via oral administration, a xenograft tumor model was established by inoculating 4×10^6 ACHN cells suspended in 100 μl of PBS and 100 μl of Matrigel (BD Bioscience) subcutaneously into the root of the right thigh of the mouse. Once the tumors reached a volume of 200 mm^3, the animals were divided into four groups for oral gavage of various solutions (n=8 per group) daily for 5 weeks: control (citrate buffer pH5), SU/PEG-mEGCG 8:1 (SU at 15 mg/kg), SU at 15 and 40 mg/kg. Tumors were measured twice weekly with a digital caliper, and the tumor volumes (mm^3) were calculated from the following formula: volume=(length×width^2)/2 (FIGS. 16 and 17).

In the case of `O=C(O[C@@H]1Cc2c(O)cc(O)cc2O[C@@H]1c1cc(O)c(O)c(O)c1)c1cc(O)c(O)c(O)c1` [EGCG, (−)-Epigallocatechin-3-gallate], in data set [1], the “effect of EGCG administration on plasma concentrations of SU” value is on record as “markedly reduced”. Also, in data set [2], the half-life result is given as “less than 30 minutes”.

In the case of `CCN(CC)CCNC(=O)c1c(C)[nH]c(/C=C2\C(=O)Nc3ccc(F)cc32)c1C` [SU, Sunitinib], the body weight entry in data set [3] (daily oral gavage 60 mg/kg, one week after commencement of treatment) was “significant weight loss”; in data set [4] (SU at 40 mg/kg), “significant weight loss”. The “toxicity of oral dose” value in data set [3] (mouse, in vivo, po, 60 mg/kg/day) is on record as “too toxic”. The weight loss result in data set [4] (SU at 15 mg/kg) is “not observed”.
